# Read-outs that look alike come from different tables or passages of the source.
# Experiments:
# [1] = assay type: physicochemical
# Protocol: The injection volume was 20 μL.
# Solutions of 1-pyrrolidine dithiocarbamic acid ammonium salt (PDTC) were prepared at concentrations of 20-, 10-, 5- and 1 mg/mL by dissolving it in a sodium acetate (NaOAc) buffer solution (0.2 M, pH 4.8). To lead-shielded 300-μL sample vials were added, individually, 50-μL aliquots of the PDTC-NaOAc butter solutions, including an aliquot of the NaOAc buffer only, to serve as a control sample. To each buffer aliquot was added 9.95 mCi ^177LuCl3 (avg) and 17.2 μg COMPOUND A (dissolved in water). The molar ratio of COMPOUND A:Lu (total Lu) for each sample was 3:1. During the reaction, in each sample, the concentration of COMPOUND A was 287-μg/mL and the activity concentration was 167-mCi/mL. The samples wore heated to 100° C. for 5 minutes, then cooled for 5 minutes in an ambient-temperature water bath. To each sample, 10 μL of 2% EDTA in water was added, and then each was analyzed by HPLC (Method 3) over 48 hours. At t=0, the radioactivity concentration was 143 mCi/mL.
# [2] = assay type: physicochemical; remark: listed apart in the source
# Protocol: The ratio of COMPOUND A to Lutetium was 3:1 for all samples. The reaction mixtures were heated, cooled, treated with Na2EDTA.2H2O and analyzed by HPLC as described in Example 13, and then stored at room temperature for 24 hours, at which time all samples were analyzed again.
# [3] = assay type: physicochemical; remark: listed apart in the source
# [4] = Effect of contaminant zinc on ^177Lu-B labeling with PDTC in reaction buffer (Example 20); assay type: physicochemical; conditions: Sample 2: COMPOUND B with ^177Lu in the presence of zinc and PDTC (COMPOUND B:^177Lu:Zinc 3:1:3)
# Protocol: The injection volume was 10 μL.
# At times, ^177LuCl3 isotope solutions are contaminated with non-radioactive metals that can interfere with radiolabeling. These metals (which may include, for example Zn, Cu, Ca and Fe among others), can compete with ^177Lu for the chelator, thus lowering reaction yields by consuming ligand so it is unavailable for chelation to ^177Lu.
# A 10-mg/mL solution of 1pyrrolidine dithiocarbamic acid ammonium salt was prepared by dissolving it in sodium acetate buffer (0.2 M, pH 4.8). To a lead-shielded, 300-μL sample vial was added 86.5 μL of the NaOAc buffer solution, 13.7 mCi ^177LuCl3, 0.6525 μg zinc (6.52 μL of a 100-μg/mL zinc plasma standard solution) and 15 μg COMPOUND B (dissolved in water). This was labeled as ‘Sample 1’. To another lead-shielded, 300-μL sample vial was added 86.5 μL of the […] 1-pyrrolidine dithiocarbamic acid ammonium salt/NaOAc buffer solution, 13.8 mCi ^177LuCl3, 0.6525 μg zinc and 15 μg COMPOUND B. This was labeled as ‘Sample 2’. The concentration of COMPOUND B in each sample was 150 μg/mL and the molar ratio of COMPOUND B:^177Lu:Zinc for each sample was 3:1:3. The samples were heated to 100° C. for 5 min, and then cooled for 5 min in an ambient-temperature water bath. To each sample, 10 μL of 2% Na2EDTA.2H2O in water was added, and then each was analyzed by HPLC, using HPLC Method 5.
# [5] = ^177Lu-A prepared with PDTC 1 mg/mL (0.05 mg)
# [6] = ^177Lu-A prepared with PDTC 5 mg/mL (0.25 mg)
# [7] = ^177Lu-A prepared with PDTC 10 mg/mL (0.5 mg)
# [8] = ^177Lu-A prepared with PDTC 20 mg/mL (1 mg)
structure (smiles),measurement,setting,value
"N.S=C(S)N1CCCC1 [PDTC, 1-pyrrolidine dithiocarbamic acid ammonium salt]",RCP (%) 0-h,"[1]; ^177Lu-A 143 mCi/mL at t=0, prepared with PDTC 1 mg/mL (0.05 mg)",100%
same,RCP (%) 0-h,"[1]; ^177Lu-A 143 mCi/mL at t=0, prepared with PDTC 5 mg/mL (0.25 mg)",100%
same,RCP (%) 0-h,"[1]; ^177Lu-A 143 mCi/mL at t=0, prepared with PDTC 10 mg/mL (0.5 mg)",100%
same,RCP (%) 0-h,"[1]; ^177Lu-A 143 mCi/mL at t=0, prepared with PDTC 20 mg/mL (1 mg)",100%
same,RCP (%) 3-h,[1]; [5],100%
same,RCP (%) 6-h,[1]; [5],17.2%
same,RCP (%) 12-h,[1]; [5],0%
same,RCP (%) 24-h,[1]; [5],0%
same,RCP (%) 3-h,[1]; [6],100%
same,RCP (%) 6-h,[1]; [6],100%
same,RCP (%) 12-h,[1]; [6],100%
same,RCP (%) 24-h,[1]; [6],0%
same,RCP (%) 3-h,[1]; [7],100%
same,RCP (%) 6-h,[1]; [7],100%
same,RCP (%) 12-h,[1]; [7],100%
same,RCP (%) 24-h,[1]; [7],100%
same,RCP (%) 48-h,[1]; [7],100%
same,RCP (%) 3-h,[1]; [8],100%
same,RCP (%) 6-h,[1]; [8],100%
same,RCP (%) 12-h,[1]; [8],100%
same,RCP (%) 24-h,[1]; [8],100%
same,RCP (%) 48-h,[1]; [8],100%
same,RCP for up to 48 hours,"[1]; ^177Lu-A, PDTC at 20 mg/mL",100%
same,RCP % t = 0 h,"[2]; ^177Lu-A (4.65-5.64 mCi) prepared in presence of stabilizer 5 mg/mL, 0 h",100%
same,RCP % t = 24 h,"[2]; ^177Lu-A prepared in presence of stabilizer 5 mg/mL, room temperature, 24 h",99.9%
same,(% RCP) 6-h,"[3]; ^177Lu-B (44-53 mCi) formulated with 5 mg stabilizing compound, 6 h",94.7%
same,(% RCP) 24-h,"[3]; ^177Lu-B (44-53 mCi) formulated with 5 mg stabilizing compound, 24 h",94.0%
same,(% RCP) 0-h,"[3]; ^177Lu-B (44-53 mCi) formulated with 5 mg stabilizing compound, diluted to ~2 mL, ~6° C. above room temperature, 0 h",95.0%
same,RCP Drop over 24 hr,"[3]; ^177Lu-B formulated with 5 mg stabilizing compound, 0 to 24 h",1%
same,RCP,[4],100%

# — patent US20120065365A1, “Stable Radiopharmaceutical Compositions and Methods for Their Preparation” (BRACCO IMAGING S.P.A., priority 2003, published 2012)
